Here are results for six compounds from publication PMC8878463, “Biological Activity and Stability of Aeruginosamides from Cyanobacteria” (Marine Drugs, 2022).

The nature of data set [1]: In vitro S9 stability assay (LC-MS/MS). Format: in vitro ADME, human. As to conditions: for change of concentration in heat-denatured S9 fraction: heat-denatured (deactivated) S9 fraction; for change of concentration in heat-denatured S9 fraction / change of concentration in active S9 fraction: up to 60 min. On the procedure:
Human S9 liver fraction (catalogue no. HMS9PL, lot no. PL045-A) (protein content 20 mg mL^−1), containing a mixture of microsomal and cytosol enzymes, was used (Thermo Fisher Scientific, Waltham, MA USA) together with the following activating cofactors: NADPH (Alfa Aesar, Wart Hill, MA, USA), UDPGA (Merck KGaA; Darmstadt, Germany) and GSH (Merck, Darmstadt Germany). All cofactors (20 mM) and the analysed AEGs (3 µM) were prepared in 1% DMSO, the reaction was performed in a buffer (200 mM Tris (Merck KGaA, Darmstadt, Germany), 2 mM MgCl2 and 1M NaOH (Avantor Performance Materials Poland S.A., Gliwice, Poland); pH 7.4) 7-etoxycoumarine (7-EC; 3 µM in 20% DMSO) (Merck KGaA, Darmstadt, Germany) was used as a positive control. Tubes with 236 µL of buffer and 24 µL of S9 fraction were prepared in duplicates. Half of the samples was kept on ice, while the other half was deactivated by heating at 80 °C for 10 min and then cooled to room temperature. Cofactors were mixed (1:1:1) and 120 µL of the mixture, together with 20 µL of 7-EC were added to all samples. The aliquots (25 µL) of the samples were withdrawn at 0, 15, 30, 45, and 60 min, and 50 µL of an ice-cold ACN:MeOH (50:50) was added to stop the reaction. The samples were centrifuged (10,000× g, 4 °C, 10 min) and the supernatants were analysed by LC-MS/MS. The test was repeated twice. The elimination half-life was calculated as in Wen and Walle.
LC-MS/MS analyses were performed using an Agilent 1200 (Agilent Technologies, Waldboronn, Germany) chromatographic system coupled with a hybrid triple quadrupole/linear ion trap mass spectrometer (QTRAP5500, Applied Biosystems, Sciex, Concorde, ON, Canada) as a detector. AEGs were separated in a Zorbax Eclipse XDB-C18 column (4.61 mm × 150 mm; 5 µm) (Agilent Technologies, Santa Clara, CA, USA). The composition of the mobile phase was the same as in preparative chromatography. For analysis of the collected chromatographic fractions, the gradient changed from 15% B to 99% B over 20 min (flow rate 0.6 mL min^−1). The Turbo IonSource operated in positive ionisation mode at capillary voltage of 5.5 kV and source temperature of 550 °C. Cone gas pressure and desolvation gas pressure were 60 psi, declustering potential was 80 V, and collision energy was 60 ± 20 eV. Q3-information-dependent analysis (IDA) and enhanced product ion (EPI) modes were used. The IDA threshold was set at 500,000 cps, and the m/z range was 400–1000. The scan rate was 2000 amu s^−1, and the linear ion trap fill time 50 ms. For analysis of AEGs and 7-EC, the chromatographic gradient changed from 15% B to 25% B in 5 min, then to 99% B in the next 5 min (0.6 mL min^−1). MS operated in multiple reaction monitoring mode at collision energy CE 50 V and with the following transitions: 191 → 163, 119, 107 (q), 91 (for 7-EC); 561 → 222, 186, 86 (q) (for AEG A); 626 → 296, 136 (q), 70 (for AEG 625) and 658 → 296, 199 (q), 120 (for AEG 657). To determine the changes in AEGs concentrations, the peak areas of the most intensive ions (q) were measured.

The target of data set [2] is CYP2D6 (Homo sapiens, UniProt P10635). Put plainly: Vivid CYP450 screening kit, CYP2D6 Blue.
Procedure: (§2) The following commercially available Vivid® CYP450 Screening Kits were performed according to the instruction supplied by the manufacturer (Thermo Fisher Scientific, Waltham, MA, USA): Vivid® CYP2C9 Blue (cat. no. P2861), Vivid® CYP2D6 Blue (cat. no. P2972) and Vivid® CYP3A4 Blue (cat. no. P2857). […] After adjustment to room temperature, the Vivid substrate was dissolved in anhydrous acetonitrile (10 µM), and the fluorescence standard was dissolved in DMSO (100 µM). The test compounds and inhibitors were diluted with the Vivid® CYP450 reaction buffer. […] In the subsequent steps, 5 µL solutions of test compounds, inhibitors and solvent were added to the wells. Then, 5 µL of Master Pre-Mix (mixture of Reagent, Regeneration System and the Reaction Buffer) was dispensed to each well. After 10 min incubation at room temperature, the reaction was started by the addition of 5 µL of a mixture composed of Vivid® Substrate and NADP^+. Tests were performed in endpoint mode using 384-well plates. […] The test was performed with three replicates at each concentration.
For data set [3], the system named is MIR92b-3p in Huh7-pmirGLO-92b cells. Put plainly: Dual-luciferase reporter assay for inhibitors of MIR92b-3p function. As to conditions: 100 µM, 24 h. Format: cell-based, human. Here is the method:
In this study, the reporter assays for small-molecule inhibitors of the MIR92b-3p function, previously designed to screen Nostoc peptides, were used. The screen employs a Huh7 human hepatoma cell line (Cell Lines Service GmbH, CLS; Eppelheim, Germany) stably transfected with a pmirGLO vector containing dual-luciferase reporters. Briefly, for the chemical screening of AEGs, Huh7-pmirGLO-MIR92b-3p cells were seeded at 10,000 cells per well in white, 96-well plates (Thermo Fisher Scientific, Waltham, MA, USA). After overnight incubation, the medium was removed and replaced with 100 μL of RPMI1640 (Merck, KGaA, Darmstadt, Germany), supplemented with increasing concentrations of AEGs, ranging from 10 nM to 100 μM, with three replicates at each concentration. Cells were incubated for 24 h and then analysed with a dual-luciferase Reporter Assay Kit (Promega, Madison, WI, USA). Relative luciferase activity was calculated using the ratio of firefly (F) and Renilla (R) luciferase activity (F/R).
A general note: Reporter assays use an easily measured gene product as a stand-in for the process of interest.

The subject of data set [4] is ROS (reactive oxygen species) levels in Huh7 cells. Put plainly: ROS-Glo H2O2 assay. It counts as cell-based, human. The note with it: 1 µM to 100 µM, 24 h, concentration-dependent. On the procedure:
(§1) To determine cell viability and ROS level, Huh7 cells were seeded at 10,000 cells per well in white 96-well plates. After overnight incubation, the medium was removed and replaced with 100 μL of RPMI1640 supplemented with increasing concentrations of AEGs ranging from 10 nM to 100 μM (cell viability) or ranging from 1 µM to 100 μM (ROS), with three replicates at each concentration. After incubation for 24 h, cells viability was examined using a Cell Titer-Glo Luminescent Cell Viability Assay (Promega, Madison, WI, USA) and ROS was measured using a ROS-Glo H2O2 Assay (Promega, Madison, WI, USA).

In data set [5] the target is T1, CYP3A4 (Homo sapiens, UniProt P08684).
T1 construct: purchased Thermo Fisher Scientific P2857; host or cells: baculovirus expression system (insect cell microsomes)
Put plainly: Vivid CYP450 screening kit, CYP3A4 Blue. Format: biochemical. As to conditions: for effect on CYP3A4 activity: up to 60 µM.
Procedure: The following commercially available Vivid® CYP450 Screening Kits were performed according to the instruction supplied by the manufacturer (Thermo Fisher Scientific, Waltham, MA, USA): Vivid® CYP2C9 Blue (cat. no. P2861), Vivid® CYP2D6 Blue (cat. no. P2972) and Vivid® CYP3A4 Blue (cat. no. P2857). The CYP450 BACULOSOMES Plus Reagent (with the recombinant human cytochrome P450 and human cytochrome 450 reductases), Vivid Regeneration System (333 mM glucose-6-phosphate and 30 U mL^−1 glucose-6-phosphate dehydrogenase in 100 mM K3PO4, pH 8.0), and Vivid NADP^+ (10 mM NADP^+ in 100 mM K3PO4, pH 8.0) were thawed at room temperature and kept on ice until use. After adjustment to room temperature, the Vivid substrate was dissolved in anhydrous acetonitrile (10 µM), and the fluorescence standard was dissolved in DMSO (100 µM). The test compounds and inhibitors were diluted with the Vivid® CYP450 reaction buffer. […] In the subsequent steps, 5 µL solutions of test compounds, inhibitors and solvent were added to the wells. Then, 5 µL of Master Pre-Mix (mixture of Reagent, Regeneration System and the Reaction Buffer) was dispensed to each well. After 10 min incubation at room temperature, the reaction was started by the addition of 5 µL of a mixture composed of Vivid® Substrate and NADP^+. Tests were performed in endpoint mode using 384-well plates. Excitation wavelength was 415 nm and emission was measured at 460 nm, at the start of the test and after 60 min. The test was performed with three replicates at each concentration.

Data set [6] addresses CYP2C9 (Homo sapiens, UniProt P11712). Put plainly: Vivid CYP450 screening kit, CYP2C9 Blue. As to conditions: for reduction of CYP2C9 activity: 60 µM, 60 min incubation.
Procedure: as §2
Data set [7] concerns Huh7 cells. Put plainly: CellTiter-Glo cell viability assay. Format: cell-based, human. The note with it: 24 h; for effect on Huh7 cell viability: 10 nM to 100 µM; for mean luciferase expression (relative luminescence), cell viability: normalized to untreated cells. On the procedure:
as §1
A general note: ATP-based viability assays read luminescence as a measure of living cells.

In data set [8] the test system is human breast adenocarcinoma cell line T47D. Put plainly: MTT cytotoxicity assay. Format: cell-based. As to conditions: 40 µM, 24 h. Here is the method: MTT (3-(4,5-dimethylthiazol-2-yl)-2,5-diphenyltetrazolium-bromide) assay was performed according to Felczykowska et al.. Briefly, cytotoxicity assessment was conducted against human breast adenocarcinoma cell line T47D obtained from the European Collection of Authenticated Cell Cultures (ECACC) through Merck KGaA (Darmstadt, Germany). Cells were cultured in 96-well plates using RPMI1640 medium (Carl Roth GmbH, Karlsruhe, Germany) supplemented with a fetal bovine serum (10% v/v; Sigma-Aldrich by Merck KGaA, Darmstadt, Germany) and penicillin-streptomycin solution (1% v/v, stock solution 50 u and 0.05 mg mL^−1, respectively; Merck KGaA, Darmstadt, Germany) at 1 × 10^4 cells per well and incubated for 24 h. After the addition of the tested compounds (40, 80, 160 and 320 µM) dissolved in 1% DMSO, samples were incubated for another 24 h. Then, MTT reagent was added (25 µL at 4 mg mL^−1 in PBS; Merck KGaA; Darmstadt, Germany) and the samples were incubated for 4 h. Lastly, formazan crystals were dissolved in 100% DMSO and absorbance was measured using a microplate reader (Spectramax i3, Molecular Devices, LLC San Jose, CA, USA). Cell viability was calculated as the ratio of the mean absorbance value measured in two independent assays, for the three replicates containing the samples, to the mean absorbance of the three replicates of the corresponding solvent control and expressed as a percentage.
(In general: Tetrazolium dyes change colour on reduction, which living cells bring about.)

Data set [9] has as its system K562 human leukaemia cells. Also on record: method as in PMID 34237867. The note with it: previous study; read-out: IC50 cytotoxic activity, K562; cited from earlier work.
For data set [10], the system named is A2780 human ovarian tumour cells. More on the design: method as in PMID 34237867. The note with it: previous study; read-out: IC50 cytotoxic activity, A2780; cited from earlier work.
Setting [11] is: active S9 fraction, 60 min, 3 µM.
Where [12] appears, read: human, recombinant CYP2D6 (CYP450 BACULOSOMES Plus Reagent), probe Vivid CYP2D6 Blue substrate.

Sequence of CYP2D6 (P10635 whole entry): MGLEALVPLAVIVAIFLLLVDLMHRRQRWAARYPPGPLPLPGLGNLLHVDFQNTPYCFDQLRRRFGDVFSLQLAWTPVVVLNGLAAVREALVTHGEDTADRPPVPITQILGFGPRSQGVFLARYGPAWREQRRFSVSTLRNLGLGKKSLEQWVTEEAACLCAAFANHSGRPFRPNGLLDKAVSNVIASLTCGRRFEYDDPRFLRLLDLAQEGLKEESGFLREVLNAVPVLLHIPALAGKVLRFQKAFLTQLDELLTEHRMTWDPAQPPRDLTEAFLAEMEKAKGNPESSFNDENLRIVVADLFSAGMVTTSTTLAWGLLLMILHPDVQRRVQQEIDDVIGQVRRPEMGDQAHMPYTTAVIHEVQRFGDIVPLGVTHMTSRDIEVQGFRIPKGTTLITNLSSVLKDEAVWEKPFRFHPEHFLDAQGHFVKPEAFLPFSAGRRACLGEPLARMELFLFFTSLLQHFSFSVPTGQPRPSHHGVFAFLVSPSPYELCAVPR
Sequence of CYP2C9 (P11712 whole entry): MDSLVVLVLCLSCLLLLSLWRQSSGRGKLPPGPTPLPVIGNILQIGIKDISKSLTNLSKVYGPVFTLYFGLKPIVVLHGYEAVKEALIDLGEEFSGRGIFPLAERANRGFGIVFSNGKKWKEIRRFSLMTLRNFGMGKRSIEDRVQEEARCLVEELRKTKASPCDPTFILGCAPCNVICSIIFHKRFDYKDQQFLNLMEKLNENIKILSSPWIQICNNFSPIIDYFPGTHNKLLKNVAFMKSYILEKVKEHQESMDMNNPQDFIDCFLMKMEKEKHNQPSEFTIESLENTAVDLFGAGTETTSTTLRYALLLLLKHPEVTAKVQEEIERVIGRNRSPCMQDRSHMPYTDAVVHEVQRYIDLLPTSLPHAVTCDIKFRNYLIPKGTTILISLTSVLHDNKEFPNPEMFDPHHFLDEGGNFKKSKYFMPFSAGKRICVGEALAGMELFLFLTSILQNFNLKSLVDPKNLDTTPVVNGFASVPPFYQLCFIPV
T1 sequence (P08684 2-503 limits assumed): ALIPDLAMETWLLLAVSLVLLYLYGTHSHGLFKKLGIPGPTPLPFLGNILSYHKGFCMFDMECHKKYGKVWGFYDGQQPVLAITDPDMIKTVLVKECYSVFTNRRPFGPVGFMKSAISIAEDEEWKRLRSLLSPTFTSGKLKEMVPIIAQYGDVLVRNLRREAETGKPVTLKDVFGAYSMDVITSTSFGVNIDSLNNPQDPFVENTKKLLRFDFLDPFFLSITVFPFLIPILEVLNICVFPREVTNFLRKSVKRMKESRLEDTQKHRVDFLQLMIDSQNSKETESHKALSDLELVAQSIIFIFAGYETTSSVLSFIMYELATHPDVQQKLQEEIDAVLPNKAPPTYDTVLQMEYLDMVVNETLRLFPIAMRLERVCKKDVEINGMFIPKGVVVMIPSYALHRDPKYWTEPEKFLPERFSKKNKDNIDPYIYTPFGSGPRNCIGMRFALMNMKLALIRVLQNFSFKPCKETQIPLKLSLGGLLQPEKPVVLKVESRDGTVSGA

With `CCOc1ccc2ccc(=O)oc2c1` [7-EC, 7-etoxycoumarin, reference compound], the “elimination half-life t1/2” value in data set [1] (active S9 fraction with NADPH, UDPGA, GSH) came out at 38.7 min. Further, in data set [1] (setting [11]), the “concentration remaining, % of initial value” is on record as 28.6%. The “change of concentration in heat-denatured S9 fraction” value in data set [1] was “no changes were observed”.

As to `C=CC(C)(C)NC(Cc1ccc(O)cc1)C(=O)NC(C(=O)N1CCCC1C(=O)N1CCCC1c1nc(C(=O)O)cs1)C(C)C` (stereo not drawn) [AEG625], the “effect on CYP2D6 activity” value in [2] (up to 60 µM) is given as “did not induce any effects”. Also, the “luciferase signal intensity (MIR92b-3p reporter)” value in data set [3] was “slight increase in signal intensity”. The “change of ROS levels in Huh7 cells” value in data set [4] is given as “twofold”. Further, in data set [1] (active S9 fraction), the “change of concentration in active S9 fraction” value is “neither changes in the active nor in the deactivated fraction were detected”. The “change of concentration in heat-denatured S9 fraction” value in data set [1] is “neither changes in the active nor in the deactivated fraction were detected”. Also, in [5], the “effect on CYP3A4 activity” value is “No significant loss of CYP3A4 activity”. Besides, the “reduction of CYP2C9 activity” value in [6] was found to be 43.9%. For the same compound, in data set [7], the “effect on Huh7 cell viability” value was “no apparent effect”. Besides, the “mean luciferase expression (relative luminescence), cell viability” value in data set [7] (50 µM) is given as 0.73 (SD = 0.47); in data set [7] (100 µM) it was 0.70 (SD = 0.27). Further, the “inhibition of T47D viability” value in data set [8] turned out to be 48%.

`C=CC(C)(C)NC(Cc1ccccc1)C(=O)NC(Cc1ccccc1)C(=O)N1CCCC1C(=O)N1CCCC1c1nc(C(=O)O)cs1` (stereo not drawn) [AEG657]: the inhibition (as a rule, the change of the read-out against control, counted positive when it falls) at 60 min, 60 µM in [2] (setting [12]) came to 33.2%. For the same compound, the “change of concentration in active S9 fraction” value in data set [1] (active S9 fraction) is listed as “neither changes in the active nor in the deactivated fraction were detected”. The “change of concentration in heat-denatured S9 fraction” value in data set [1] is “neither changes in the active nor in the deactivated fraction were detected”. Also, in [5] (60 µM), the “CYP3A4 activity lower than in the control” value is recorded as “approx. 18%”. Further, in data set [6], the “reduction of CYP2C9 activity” value was 40.7%. Further, in data set [7], the “effect on Huh7 cell viability” value was “lack of significant effects”. The “inhibition of T47D viability” value in data set [8] was determined as 63%.

For the compound `CCC(C)C(C(=O)NC(C(=O)N1CCCC1c1nc(C(=O)O)cs1)C(C)C)N(CC=C(C)C)CC=C(C)C` (stereo not drawn) [AEG A], the values for the IC50 in [9], in data set [5] (60 min incubation) and in data set [10] were 5.2 µM, 5.7 µM and 2.9 µM, respectively. Also, the “remaining CYP2D6 activity (reduced to)” value in [2] (6 µM) is recorded as 78.4%; in data set [2] (60 µM), 60.4%. Moreover, the IC50 (in general, the concentration that inhibits the measured activity by half) at 60 min in [2] (setting [12]) is 8.6 µM. Besides, the “concentration remaining, % of initial value” in [1] (active S9 fraction, 15 min, 3 µM) worked out at 2.9%; in data set [1] (setting [11]), 0.4%; in [1] (heat-denatured S9 fraction, 15 min) it was 56.0%; in [1] (heat-denatured S9 fraction, 60 min) it was 46.0%. In [1] (human, liver S9 fraction (active), pH 7.4, active S9 fraction with NADPH, UDPGA, GSH, read-out: elimination half-life t1/2), the half-life at 3 µM was determined as 2.48 min. Besides, in [5], the “effect on CYP3A4 activity” value is “active against CYP3A4, but only at the two highest concentrations”. The “reduction of CYP2C9 activity” value in [6] was determined as 28.7%. In [7], the “effect on Huh7 cell viability” value is “did not affect either of the two cancer cell lines”. Further, the “inhibition of T47D viability” value in data set [8] was “no effects were observed”.

As for `C=C[C@H]1C[N@@]2CC[C@H]1C[C@@H]2[C@@H](O)c1ccnc2ccc(OC)cc12` [Quinidine, reference compound], the inhibition at 60 min, 60 µM in data set [2] (human) was determined as 96.2%.

As for `Nc1ccc(S(=O)(=O)Nc2ccnn2-c2ccccc2)cc1` [sulfaphenazole, reference compound], the “reduction of CYP2C9 activity” value in data set [6] stood at 44.9%. The same compound returned an IC50 at 60 min in data set [6] (human) of 6.1 µM.
